The text below walks through data of US7935182B2, “Solution for wood preservation” (priority 2004, dated 2011).

This data set is described as follows: copper leaching from wood impregnated with preservative solution. The data set is classed as physicochemical.

With `O=S(=O)([O-])[O-].[Cu+2]` [Copper (II) sulphate], for the setting “wood treated with copper based preservative solution”, the “Copper leached in %” value is reported as 45-55%^. Consider `NCCO` [ethanolamine], for which the “copper leaching rates compared to diethanolamine or triethanolamine” value (wood impregnated with preservative solution, ethanolamine used as amine source) is “Almost ten times lowest”.
